Reference: patent publication US8999323B2, “Composition that can be cured by polymerisation for the production of biodegradable, biocompatible, cross-linkable polymers on the basis of polyvinyl alcohol” (Technische Universität Wien, priority 2007, dated 2015)
Where two headings read alike, the source gives them in different places.

What was measured:
Format in all cases: cell-based
in vitro = conditions: mouse
Excerpt: (§1) In order to assess toxicity, osteoblast-like cells MC3T3-E1 (source: ATCC CRL-2596) were used. At first, the adherent cells were separated from each other and from the bottom of the petri dishes using pronase, and were then mixed with freshly prepared medium consisting of commercially available Minimal Essential Medium Eagle's alpha Modification (αMEM), supplemented with additional glucose from originally 1 g/l to a glucose concentration of 4.5 g/l as well as with 10% FCS (fetal calf serum), 30 μg/ml gentamycin (broad-spectrum antibiotic), L-glutamine (400 mg/l), and ascorbic acid (50 mg/l), so as to obtain a cell concentration of 40,000 cells/ml. 1 ml of this cell suspension was precharged into each well (diameter 1.9 cm) of multi-well plates.
(§2) The multi-well containing the cells was incubated for 5 days at 37° C. under a humid atmosphere with 5% CO2 together with increasing amounts of the monomers used in the examples and comparative examples. Then the cells were washed with phosphate-buffered physiological saline and frozen before the measurements, in order to break up the cells. After thawing of the cells, the amount of deoxyribonucleic acid, which is proportional to the cell count, was determined by staining with a fluorescent dye, measuring the fluorescence at 460 nm (after excitation at 360 nm) and comparing the value to a calibration curve previously prepared.

[1] = system: human umbilical vein endothelial cells (HUVEC); assay: Toxicity test of monomers with endothelial cells (EZ4U)
Method: For an additional toxicity test of monomers of formula (I), human umbilical vein endothelial cells (HUVEC) were used. After trypsinating the confluent primary cultures, the cells were suspended in commercial Medium 199 with 20% fetal calf serum, put into 96-well cell culture plates in a concentration of 40,000 cells/cm^2, and cultivated until they were confluent again (37° C., 5% CO2). The cell supernatants were then lifted, and the endothelial cells were incubated for 24 hours with increasing monomer concentrations (0.1 nM to 1 mM in Medium 199 with 10% fetal calf serum). The influence on cell proliferation was examined by means of a non-radioactive cell proliferation and cytotoxicity test (EZ4U, Biomedica, Vienna). This test is based on the conversion by living cells of colorless tetrazolium salts into intensively colored formazan derivatives. The photochemically measured staining is proportional to the number of living cells in the sample. Thus, the influence of the test substances on the proliferation of the cells may be photometrically determined. Endothelial cells which had been cultivated without the addition of monomer solutions were used as a growth control.

[2] = system: osteoblast-like cells MC3T3-E1; assay: in vitro
Excerpt: as §1, §2

[3] = MC3T3-E1, 5 days incubation, DNA fluorescence, values are LC50 × 10^4
[4] = HUVEC, 24 hours, concentration of half-maximum proliferation inhibition

Compound	CC50 (in vitro; [3]) [mM]	CC50 at 5 days (in vitro) [mM]	also measured
C=C(C)C(=O)OCCCCOC(=O)C(=C)C [BDMA, 1,4-butanediol dimethacrylate, reference compound]	< 0.01	–	Cmax1/2 [1, 4]: 40 µM
C=COP(=O)(OC=C)OCC [DVEP, divinyl ethyl phosphate]	> 10	–	–
C=COC(=O)CCCCCCCCC [DVE, decanoic acid vinyl ester]	–	> 10	Cmax1/2 [1, 4]: >1000 µM
C=COC(=O)OCC(COC(=O)OC=C)OC(=O)OC=C [GTVC, glycerine tris(vinyl carbonate)]	–	> 10	–
C=COC(=O)CC(C)C(C)C(CC(=O)OC=C)C(C)CC(=O)OC=C (centres unmarked) [TFVE, trimeric fatty acid trivinyl ester]	–	> 10	–
C=COC(=O)OCCOCCOC(=O)OC=C [DEGDVC, diethylene glycol bis(vinyl carbonate)]	–	> 10	–
C=COC(=O)OCCC#N [CEVC, 2-cyanoethyl vinyl carbonate]	–	> 10	–
C=COC(=O)OCCCCOC(=O)OC=C [BDDVC, 1,4-butanediol bis(vinyl carbonate)]	–	–	CC50 at 5 days (in vitro; osteoblast-like MC3T3-E1 cells (ATCC CRL-2596), MC3T3-E1, 5 days incubation, DNA fluorescence, values are LC50 × 10^4, read-out: In vitro LC50 × 10^4): > 10 mM
C=COC(=O)COCCOCCOCC(=O)OC=C [TUVE, ω,ω′-3,6,9-trioxaundecanedioic acid divinyl ester]	–	> 10	–
C=COC(=O)N(C)CCN(C)C(=O)OC=C [N,N′-dimethyl ethylenediamine bis(vinyl carbamate)]	> 10	–	–
C=CC(=O)OCC(CC)(COC(=O)C=C)COC(=O)C=C [TTA, trimethylolpropane triacrylate, reference compound]	< 0.01	–	Cmax1/2 ([1]; human, 24 h): 10 µM
C=COC(=O)CCCCCCCCC(=O)OC=C [SEVE, sebacic acid divinyl ester]	–	> 10	Cmax1/2 [1, 4]: >1000 µM
C=COC(=O)NCCOP(=O)(OCC)OCCNC(=O)OC=C [EBVCAEP, ethyl bis[2-(vinyloxycarbonylamino)ethyl]phosphate]	> 10	–	–
hydrated ricinus oil tris(vinyl carbonate) [HRiTVC]	–	–	CC50 [2]: > 10 mM
C=COP(=O)(OCC)OCC [DEVP, diethyl vinyl phosphate]	> 10	–	–
C=COP(=O)(OC=C)OC=C [TVP, trivinyl phosphate]	> 10	–	–
C=COC(=O)CCCCC(=O)OC=C [AVE, adipic acid divinyl ester]	–	–	Cmax1/2 [1, 4]: >1000 µM

Compound	CC50 (in vitro; [3]) [mM]	CC50 at 5 days (in vitro) [mM]	also measured
C=COC(=O)ON(C)C(=O)OC=C [MHADVC, N,O-Bis(vinyloxycarbonyl)-N-methyl hydroxylamine]	> 10	–	–
C=COC(=O)OCCCCCCOC(=O)OC=C [HDDVC, 1,6-hexanediol bis(vinyl carbonate)]	–	> 10	–
C=COC(=O)CCCCCCC(=O)OC=C [KVE, octanedioic acid divinyl ester]	–	> 10	Cmax1/2 [1, 4]: >1000 µM
C=CC(=O)OCCCCCCOC(=O)C=C [HDDA, 1,6-hexanediol diacrylate, reference compound]	< 0.01	–	Cmax1/2 [1, 4]: 20 µM
ethoxylated (20) TTA, MG 1200 [ETA, reference compound]	–	–	CC50 [2]: 0.07 mM; Cmax1/2 ([1]; human): 100 µM
C=COC(=O)N(OC)C(=O)C=C [AMVCA, N-acryloyl N-methoxy vinyl carbamate]	< 0.01	–	toxicity for osteoblasts compared with the acrylates of the comparative examples ([2]; statement on Table 2): similarly toxic as the majority of the comparative examples
polyethylene glycol diacrylate, MG 800 [PEG-DA, reference compound]	–	–	CC50 [2]: 0.11 mM; Cmax1/2 ([1]; human): 500 µM
polyethylene glycol(400) bis(vinyl carbonate) [PEGDVC]	–	–	CC50 [2]: > 10 mM
C=COC(=O)NOC [MVCA, N-methoxy vinyl carbamate]	> 10	–	–
C=COC(=O)OCCOC(=O)OC=C [EGDVC, ethylene glycol bis(vinyl carbonate)]	–	> 10	–
C=COC(=O)N(C)CC(=O)OC [SMEVCA, sarcosine methyl ester vinyl carbamate]	> 10	–	–
diethylene glycol bis[O—(O′- vinylmaleinoy1)-polylactate] [DVMPL]	–	–	Cmax1/2 [1, 4]: >1000 µM
C=COC(=O)NCCCOCCOCCCNC(=O)OC=C [JAVM, 3,3′-ethylenedioxy bis(propylamine)divinyl carbamate]	> 10	–	–
C=COC(=O)OCC [EVC, ethylvinyl carbonate]	–	> 10	–
C=COC(=O)[C@H](Cc1ccccc1)NC(C)=O [PAVE, N-acetyl phenylalanine vinyl ester]	–	> 10	Cmax1/2 [1, 4]: >1000 µM
C=COC(=O)CCCCC [HVE, hexanoic acid vinyl ester]	–	> 10	Cmax1/2 [1, 4]: >1000 µM
